According to ChEMBL document CHEMBL1139989, “Aminosuberoyl hydroxamic acids (ASHAs): a potent new class of HDAC inhibitors” (Bioorg Med Chem Lett, 2007):

Experiments:
Mus musculus = organism: Mus musculus; experiment: Decrease in body weight in nude mouse; assay type: functional; design: scale not given: the % may be the effect or the level left
HCT-116 = experiment: Antitumor activity against human HCT116 cells; assay type: functional
Histone deacetylase 1 = Histone deacetylase 1 (Homo sapiens, UniProt Q13547); experiment: Inhibition of human HDAC 1
Sequence of Histone deacetylase 1 (Q13547 whole entry): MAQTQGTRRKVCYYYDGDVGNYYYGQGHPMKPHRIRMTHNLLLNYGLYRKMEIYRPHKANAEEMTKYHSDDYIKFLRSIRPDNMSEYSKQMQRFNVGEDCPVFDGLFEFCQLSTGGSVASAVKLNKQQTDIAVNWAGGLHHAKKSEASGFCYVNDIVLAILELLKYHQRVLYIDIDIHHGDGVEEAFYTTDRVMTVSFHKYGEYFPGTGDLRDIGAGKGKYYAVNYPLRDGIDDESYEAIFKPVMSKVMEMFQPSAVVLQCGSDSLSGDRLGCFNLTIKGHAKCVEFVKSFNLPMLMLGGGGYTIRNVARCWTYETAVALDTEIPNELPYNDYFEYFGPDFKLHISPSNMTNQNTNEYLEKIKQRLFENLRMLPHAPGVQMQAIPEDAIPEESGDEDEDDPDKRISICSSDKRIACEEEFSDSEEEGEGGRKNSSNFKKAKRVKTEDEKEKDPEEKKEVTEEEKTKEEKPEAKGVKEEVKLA

[1] = Antiproliferative activity against mouse SC9 cells by MTS assay; assay type: functional, cell-based

Row | IC50 (Histone deacetylase 1) [nM] | Structure (SMILES) | Activity (Mus musculus) [%] | TGI (HCT-116) | IC50 [1] [nM]
1 | 11.1 | O=C(CCCCC[C@H](NC(=O)c1ccccn1)C(=O)Nc1ccccc1)NO | <20 | >=50% | 250
2 | 1.3 | O=C(CCCCC[C@H](NC(=O)c1ccccn1)C(=O)Nc1ccc2ncccc2c1)NO | – | – | 756
3 | 3.5 | O=C(CCCCC[C@H](NC(=O)c1ccccc1)C(=O)Nc1ccc2ncccc2c1)NO | – | – | 90
4 | 51.3 | O=C(CCCCC[C@H](NC(=O)c1ccc2ccccc2n1)C(=O)NCc1ccccc1)NO | – | – | 374
5 | 93 | O=C(CCCCC[C@H](NC(=O)c1ccccc1)C(=O)NCc1ccccc1)NO | – | – | 1040
6 | 12.1 | O=C(CCCCC[C@H](NC(=O)c1ccccc1)C(=O)Nc1ccccc1)NO | – | – | 73
7 | 48 | O=C(CCCCC[C@H](NC(=O)OCc1ccccc1)C(=O)NCc1ccccc1)NO | – | – | 412
8 | 18 | O=C(CCCCC[C@H](NC(=O)OCc1ccccc1)C(=O)Nc1ccccc1)NO | – | – | 102
9 | 120 | O=C(CCCCC[C@H](NC(=O)c1ccccn1)C(=O)NCc1ccccc1)NO | – | – | 3420

Continued, compound first:

Row | Structure (SMILES) | IC50 (Histone deacetylase 1) [nM] | Activity (Mus musculus) [%] | TGI (HCT-116) | IC50 [1] [nM]
10 | O=C(CCCCC[C@H](NC(=O)c1ccc2ccccc2n1)C(=O)Nc1ccccc1)NO | 10 | – | – | 33
11 | O=C(CCCCC[C@H](NC(=O)OCc1ccccc1)C(=O)Nc1cccc2cccnc12)NO | 14.5 | – | – | 39
12 | O=C(CCCCC[C@H](NC(=O)c1ccc2ccccc2n1)C(=O)Nc1ccc2ncccc2c1)NO | – | – | – | 107
13 | O=C(CCCCC[C@H](NC(=O)c1ccccn1)C(=O)Nc1cccc2cccnc12)NO | 4 | – | – | 367
14 | O=C(CCCCC[C@H](NC(=O)c1ccc2ccccc2n1)C(=O)Nc1cccc2cccnc12)NO | – | – | – | 165
15 | O=C(CCCCC[C@H](NC(=O)OCc1ccccc1)C(=O)Nc1ccc2ncccc2c1)NO | 7.7 | – | – | 110
16 | O=C(CCCCC[C@H](NC(=O)c1ccccc1)C(=O)Nc1cccc2cccnc12)NO | 9.4 | <20 | >=50% | 43
